Target: T1, human PAD4 (Homo sapiens, UniProt Q9UM07)
T1 construct: human PAD4 (NM_012387), A2P663, was PCR amplified; His-SUMO (N, cleaved yes); made in house; host or cells: E. coli BL21(DE3)
Assay: In vitro PAD4 BAEE biochemical assay
Conditions: human PAD4, BAEE substrate; 5 nM PAD4, 2 mM calcium chloride, 3 mM BAEE; geometric mean of multiple experiments
Procedure, shortened: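 Ammonia release from BAEE deimination monitored by o-phthalaldehyde amine coupling (1 h, 25 °C) after EDTA stop. Final conditions: 5 nM tag-free recombinant human PAD4 (E. coli), 2 mM CaCl2, 3 mM BAEE, pH 7.6 MOPS with DTT; 30 min compound preincubation, then 2 h reaction at 25 °C.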

T1 sequence (Q9UM07 2-663): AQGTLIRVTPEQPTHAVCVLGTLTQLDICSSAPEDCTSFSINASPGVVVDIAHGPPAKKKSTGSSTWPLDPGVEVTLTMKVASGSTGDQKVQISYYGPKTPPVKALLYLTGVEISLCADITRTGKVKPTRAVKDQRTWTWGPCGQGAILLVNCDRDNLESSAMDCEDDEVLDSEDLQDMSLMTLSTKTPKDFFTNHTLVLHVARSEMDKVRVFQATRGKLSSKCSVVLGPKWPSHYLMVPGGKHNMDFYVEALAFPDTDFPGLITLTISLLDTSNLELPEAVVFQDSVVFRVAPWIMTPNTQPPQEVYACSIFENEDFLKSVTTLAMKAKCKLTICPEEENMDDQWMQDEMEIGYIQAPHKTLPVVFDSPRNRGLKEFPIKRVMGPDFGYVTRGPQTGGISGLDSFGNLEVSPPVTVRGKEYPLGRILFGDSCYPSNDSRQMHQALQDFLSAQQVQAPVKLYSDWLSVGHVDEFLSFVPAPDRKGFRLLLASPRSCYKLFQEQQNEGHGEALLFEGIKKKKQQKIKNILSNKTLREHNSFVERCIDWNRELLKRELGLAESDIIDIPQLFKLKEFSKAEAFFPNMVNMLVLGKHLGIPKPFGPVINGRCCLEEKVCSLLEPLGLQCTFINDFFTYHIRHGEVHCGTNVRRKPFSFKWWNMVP

Row | IC50 | SMILES
1 | 38700 nM | COc1cc(C(=O)N[C@@H]2CC[C@@H](C)NC2)cc2nc(-c3cc4ccc(N(C(F)F)S(C)(=O)=O)nc4n3CC3CC3)c(C)n12 [Example 314, 2-[1-(cyclopropylmethyl)-6-[difluoromethyl (methylsulfonyl)amino]pyrrolo[2,3-b]pyridin-2-yl]-5-methoxy-3-methyl-~{N}-[(3~{R},6~{R})-6-methylpiperidin-3-yl]imidazo[1,2-a] pyridine-7-carboxamide]
2 | 24.2 nM | COc1cc(C(=O)N2[C@H]3CC[C@@H]2[C@H](N)C3)cc2nc(-c3cc4ccc([C@@H](C)NC(=O)c5ccnc(C)c5)nc4n3CC3CC3)c(C)n12 [Example 47, ~{N}-[(1~{R})-1-[2-[7-[(1~{R},2~{R},4~{S})-2-amino-7-azabicyclo[2.2.1]heptane-7-carbonyl]-5-methoxy-3-methylimidazo [1,2-a]pyridin-2-yl]-1-(cyclopropylmethyl)pyrrolo[2,3-b]pyridin-6-yl]ethyl]-2-methylpyridine-4-carboxamide]
3 | 77.7 nM | COc1cc(C(=O)N2[C@H]3CC[C@@H]2[C@H](N)C3)cc2nc(-c3cc4ccc(C(C)CC#N)nc4n3CC3CC3)c(C)n12 (stereo partly drawn) [Example 557, 3-[2-[7-[(1~{R},2~{R}, 4~{S})-2-amino-7-azabicyclo[2.2.1]heptane-7-carbonyl]-5-methoxy-3-methylimidazo[1,2-a]pyridin-2-yl]-1-(cyclopropylmethyl)pyrrolo [2,3-b]pyridin-6-yl] butanenitrile]
4 | 465 nM | COc1cc(C(=O)N2[C@H]3CC[C@@H]2[C@H](N)C3)cc2nc(-c3cc4ccc(C(C)(O)C(C)C)nc4n3CC3CC3)c(C)n12 (stereo partly drawn) [Example 571, [(1~{R},2~{R},4~{S})-2-amino-7-azabicyclo [2.2.1]heptan-7-yl]-[2-[1-(cyclopropylmethyl)-6-(2-hydroxy-3-methylbutan-2-yl)pyrrolo[2,3-b]pyridin-2-yl]-5-methoxy-3-methylimidazo[1,2-a]pyridin-7-yl]methanone]
5 | 40.6 nM | COc1cc(C(=O)N2[C@H]3CC[C@@H]2[C@H](N)C3)cc2nc(-c3cc4ccc([C@@H](C)NC(=O)c5cnn(C6CC6)c5)nc4n3CC3CC3)c(C)n12 [Example 106, ~{N}-[(1~{R})-1-[2-[7-[(1~{R},2~{R},4~{S})-2-amino-7-azabicyclo [2.2.1]heptane-7-carbonyl]-5-methoxy-3-methylimidazo [1,2-a]pyridin-2-yl]-1-(cyclopropylmethyl)pyrrolo [2,3-b]pyridin-6-yl]ethyl]-1-cyclopropylpyrazole-4-carboxamide]
6 | 58 nM | COc1cc(C(=O)N2[C@H]3CC[C@@H]2[C@H](N)C3)cc2nc(-c3cc4ccc([C@@H](C)NC(=O)c5cn(C)nc5Cl)nc4n3CC3CC3)c(C)n12 [Example 76, ~{N}-[(1~{R})-1-[2-[7-[(1~{R},2~{R},4~{S})-2-amino-7-azabicyclo[2.2.1]heptane-7-carbonyl]-5-methoxy-3-methylimidazo [1,2-a]pyridin-2-yl]-1-(cyclopropylmethyl)pyrrolo [2,3-b]pyridin-6-yl]ethyl]-3-chloro-1-methylpyrazole-4-carboxamide]
7 | 2130 nM | CCC1C(N)C2CCC1N2C(=O)c1cc(OC)n2c(C)c(-c3cc4ccc(N(C(F)F)S(C)(=O)=O)nc4n3CC3CC3)nc2c1 (single isomer, unassigned) [Example 346]
8 | 17700 nM | CCc1ccc2cc(-c3nc4cc(C(=O)N5[C@H]6CC[C@@H]5[C@H](N)C6)cc(OC)n4c3C)n(-c3ccccc3)c2n1 [Example 512, [(1~{R},2~{R},4~{S})-2-amino-7-azabicyclo [2.2.1]heptan-7-yl]-[2-(6-ethyl-1-phenylpyrrolo [2,3-b]pyridin-2-yl)-5-methoxy-3-methylimidazo [1,2-a]pyridin-7-yl]methanone]
9 | 2730 nM | COc1cc(C(=O)N2C[C@@H]3CC[C@H]2[C@@H](N)C3)cc2nc(-c3cc4ccc(N(C(F)F)S(C)(=O)=O)nc4n3CC3CC3)c(C)n12 [Example 375, ~{N}-[2-[7-[(1~{S},4~{R}, 6~{S})-6-amino-2-azabicyclo[2.2.2]octane-2-carbonyl]-5-methoxy-3-methylimidazo[1,2-a]pyridin-2-yl]-1-(cyclopropylmethyl)pyrrolo [2,3-b]pyridin-6-yl]-~{N}-(difluoromethyl) methanesulfonamide]
10 | 227 nM | COc1cc(C(=O)N2[C@H]3CC[C@@H]2[C@H](N)C3)cc2nc(-c3cc4ccc(C(C)(C)N)nc4n3CC3CC3)c(C)n12 [Example 570, [(1~{R},2~{R},4~{S})-2-amino-7-azabicyclo [2.2.1]heptan-7-yl]-[2-[6-(2-aminopropan-2-yl)-1-(cyclopropylmethyl)pyrrolo [2,3-b]pyridin-2-yl]-5-methoxy-3-methylimidazo[1,2-a]pyridin-7-yl]methanone]
11 | 100 nM | COc1cc(C(=O)N2[C@H]3CC[C@@H]2[C@H](N)C3)cc2nc(-c3cc4ccc(N(C5CCC5)S(C)(=O)=O)nc4n3CC3CC3)c(C)n12 [Example 477, ~{N}-[2-[7-[(1~{R}, 2~{R},4~{S})-2-amino-7-azabicyclo[2.2.1]heptane-7-carbonyl]-5-methoxy-3-methylimidazo[1,2-a]pyridin-2-yl]-1-(cyclopropylmethyl)pyrrolo [2,3-b]pyridin-6-yl]-~{N}-cyclobutylmethane-sulfonamide]
12 | 11700 nM | COc1cc(C(=O)N2C[C@@H]3CNCC[C@@H]32)cc2nc(-c3cc4ccc(N(C(F)F)S(C)(=O)=O)nc4n3CC3CC3)c(C)n12 [Example 283, ~{N}-[1-(cyclopropylmethyl)-2-[7-[(1~{S},6~{S})-3,7-diazabicyclo[4.2.0]octane-7-carbonyl]-5-methoxy-3-methylimidazo[1,2-a]pyridin-2-yl]pyrrolo[2,3-b]pyridin-6-yl]-~{N}-(difluoromethyl) methanesulfonamide]
13 | 35.6 nM | COc1cc(C(=O)N2[C@H]3CC[C@@H]2[C@H](N)C3)cc2nc(-c3cc4ccc([C@@H](C)NC(=O)N5CC(C(=O)O)C5)nc4n3CC3CC3)c(C)n12 [Example 237]
14 | 312 nM | CCOC(=O)CC(C)c1ccc2cc(-c3nc4cc(C(=O)N5CCC[C@@H](N)C5)cc(OC)n4c3C)n(CC3CC3)c2n1 (stereo partly drawn) [Example 598, ethyl 3-[2-[7-[(3~{R})-3-aminopiperidine-1-carbonyl]-5-methoxy-3-methylimidazo [1,2-a]pyridin-2-yl]-1-(cyclopropylmethyl)pyrrolo [2,3-b]pyridin-6-yl] butanoate]
15 | 246 nM | COc1cc(C(=O)N2[C@H]3CC[C@@H]2[C@H](N)C3)cc2nc(-c3cc4ccc(N5CCCC(C(C)C)S5(=O)=O)nc4n3CC3CC3)c(C)n12 (stereo partly drawn) [Example 452, [(1~{R},2~{R},4~{S})-2-amino-7-azabicyclo [2.2.1]heptan-7-yl]-[2-[1-(cyclopropylmethyl)-6-(1,1-dioxo-6-propan-2-ylthiazinan-2-yl)pyrrolo [2,3-b]pyridin-2-yl]-5-methoxy-3-methylimidazo [1,2-a]pyridin-7-yl]methanone]
16 | 1360 nM | [2H]C([2H])([2H])N(c1ccc2cc(-c3nc4cc(C(=O)N5C[C@H]6CC[C@@H]5[C@@H]6N)cc(OC)n4c3C)n(CC3CC3)c2n1)S(=O)(=O)Cc1ccccc1 [Example 471, N-[2-[7-[(1R,4R,7R)-7-amino-2-azabicyclo[2.2.1]heptane-2-carbonyl]-5-methoxy-3-methyl-imidazo [1,2-a]pyridin-2-yl]-1-(cyclopropylmethyl)pyrrolo[2,3-b]pyridin-6-yl]-1-phenyl-N-(trideuteriomethyl) methanesulfonamide]
17 | 297 nM | COc1cc(C(=O)N2[C@H]3CC[C@@H]2[C@H](N)C3)cc2nc(-c3cc4ccc([C@@H](C)NC(=O)c5ccccc5F)nc4n3CC3CC3)c(C)n12 [Example 15, ~{N}-[(1~{R})-1-[2-[7-[(1~{R}, 2~{R},4~{S})-2-amino-7-azabicyclo [2.2.1]heptane-7-carbonyl]-5-methoxy-3-methylimidazo [1,2-a]pyridin-2-yl]-1-(cyclopropylmethyl)pyrrolo[2,3-b]pyridin-6-yl]ethyl]-2-fluorobenzamide]
18 | 24600 nM | COc1cc(C(=O)N[C@H]2CCCCNC2)cc2nc(-c3cc4ccc(N(C(F)F)S(C)(=O)=O)nc4n3CC3CC3)c(C)n12 [Example 296, ~{N}-[(3~{S})-azepan-3-yl]-2-[1-(cyclopropylmethyl)-6-[difluoromethyl (methylsulfonyl)amino]pyrrolo[2,3-b]pyridin-2-yl]-5-methoxy-3-methylimidazo[1,2-a]pyridine-7-carboxamide]
19 | 270 nM | CCCC(CC(=O)N1CCCC1)c1ccc2cc(-c3nc4cc(C(=O)N5[C@H]6CC[C@@H]5[C@H](N)C6)cc(OC)n4c3C)n(CC3CC3)c2n1 (stereo partly drawn) [Example 541, 3-[2-[7-[(1~{R},2~{R}, 4~{S})-2-amino-7-azabicyclo[2.2.1]heptane-7-carbonyl]-5-methoxy-3-methylimidazo[1,2-a]pyridin-2-yl]-1-(cyclopropylmethyl)pyrrolo [2,3-b]pyridin-6-yl]-1-pyrrolidin-1-ylhexan-1-one]
20 | 118 nM | COc1cc(C(=O)N2[C@H]3CC[C@@H]2[C@H](N)C3)cc2nc(-c3cc4ccc([C@@H](C)NC(=O)C56CC(C#N)(C5)C6)nc4n3CC3CC3)c(C3CC3)n12 [Example 140, ~{N}-[(1~{R})-1-[2-[7-[(1~{R},2~{R},4~{S})-2-amino-7-azabicyclo[2.2.1]heptane-7-carbonyl]-3-cyclopropyl-5-methoxyimidazo[1,2-a]pyridin-2-yl]-1-(cyclopropylmethyl)pyrrolo[2,3-b]pyridin-6-yl]ethyl]-3-cyanobicyclo[1.1.1]pentane-1-carboxamide]
21 | 346 nM | CCc1ccc2cc(-c3nc4cc(C(=O)N5[C@H]6CC[C@@H]5[C@H](N)C6)cc(OC)n4c3C3CC3)n(CC3CC3)c2n1 [Example 578, [(1~{R},2~{R},4~{S})-2-amino-7-azabicyclo [2.2.1]heptan-7-yl]-[3-cyclopropyl-2-[1-(cyclopropylmethyl)-6-ethylpyrrolo[2,3-b]pyridin-2-yl]-5-methoxyimidazo [1,2-a]pyridin-7-yl]methanone]

From patent publication US12240862B2, “Inhibitors of peptidylarginine deiminases” (Gilead Sciences, Inc., priority 2020, dated 2025)
